Results on 6 molecules are retold here after PMC9090415, “Discovery of small molecule inhibitors of Plasmodium falciparum apicoplast DNA polymerase” (Journal of Enzyme Inhibition and Medicinal Chemistry, 2022).

The assay deals with P. falciparum apicoplast DNA polymerase (Pf-apPOL) (Plasmodium falciparum, UniProt Q8ILY1). The assay is described as follows: Fluorescence-based high-throughput DNA polymerase assay (molecular beacon), primary screen and dose-response.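 For % inhibition ApPOL 90': test concentration in µM.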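 For % inhibition apPOL 180': test concentration in µM.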 The class given is biochemical. In short, it runs like this: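 Single-point screening used 10 µM compound with 20 nM polymerase, 20 nM hairpin substrate and 6 µM dNTPs for 90 min at 25 °C. Confirmatory titrations (2.5–80 µM) followed fluorescence at three times, and IC50 was derived from a fit including a cooperativity term n.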
Chain of P. falciparum apicoplast DNA polymerase (Pf-apPOL) (Q8ILY1 entry or part of it): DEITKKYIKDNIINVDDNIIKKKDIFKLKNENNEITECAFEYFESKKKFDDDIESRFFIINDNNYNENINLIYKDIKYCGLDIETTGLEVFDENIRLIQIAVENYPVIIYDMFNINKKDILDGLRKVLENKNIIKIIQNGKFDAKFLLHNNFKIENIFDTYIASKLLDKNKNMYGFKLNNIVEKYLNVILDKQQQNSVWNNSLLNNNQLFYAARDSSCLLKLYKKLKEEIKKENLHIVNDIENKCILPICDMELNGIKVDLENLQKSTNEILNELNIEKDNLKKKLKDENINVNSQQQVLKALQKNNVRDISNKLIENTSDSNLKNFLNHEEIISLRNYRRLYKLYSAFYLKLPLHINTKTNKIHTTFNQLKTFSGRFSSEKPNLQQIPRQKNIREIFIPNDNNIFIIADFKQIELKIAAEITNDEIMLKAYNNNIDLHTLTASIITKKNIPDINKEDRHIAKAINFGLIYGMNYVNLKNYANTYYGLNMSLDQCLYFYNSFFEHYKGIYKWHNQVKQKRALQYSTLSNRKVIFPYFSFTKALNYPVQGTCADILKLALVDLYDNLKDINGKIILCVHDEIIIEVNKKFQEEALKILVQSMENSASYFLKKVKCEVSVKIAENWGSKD

Setting [1] is: supplemental file 2, sheet IC50 nontoxic compounds; Pf-apPOL.

On to `COc1ccc(NC(=O)Cn2nc3c(cc2=O)CCC3)cc1Cl` [Molecule 4, COc1ccc(cc1Cl)NC(=O)Cn1nc2CCCc2cc1=O], for which the “% inhibition Apo pol 10'” value is reported as -1.67% (DRC-1; concentration 2.5; 10'); 44% (DRC-1; concentration 5; 10'); 88% (DRC-1; concentration 10; 10'); 94% (DRC-1; concentration 20; 10'); 93% (DRC-1; concentration 40; 10'); 89% (DRC-1; concentration 80 (unit not given); 10'). In addition, the “% inhibition Apo pol 10'” value (first dose-response set; 10'; concentration 5) amounted to 44%. The “% inhibition Apol 90'” value (DRC-1; concentration 2.5; 90') is given as -5%; the “% inhibition Apol 90'” value (DRC-1; concentration 5; 90') stood at 29%; the “% inhibition Apol 90'” value (DRC-1; concentration 10; 90') is on record as 78%; the “% inhibition Apol 90'” value (DRC-1; concentration 20; 90') is given as 90%; the “% inhibition Apol 90'” value (DRC-1; concentration 40; 90') worked out at 92%; the “% inhibition Apol 90'” value (DRC-1; concentration 80; 90') turned out to be 90%. Also, the “% inhibition Apol 90'” value by setting is: (first dose-response set; 90'; concentration 10) 78%; (first dose-response set; 90'; concentration 20) 90%; (first dose-response set; 90'; concentration 80) 90%. The “% inhibition apPOL 180'” value is listed as -9% (DRC-1; concentration 2.5; 180'); 17% (DRC-1; concentration 5; 180'); 66% (DRC-1; concentration 10; 180'); 86% (DRC-1; concentration 20; 180'); 91% (DRC-1; concentration 40; 180'); 91% (DRC-1; concentration 80; 180'). The “% inhibition apPOL 180'” value was determined as 44% (DRC-2; 180'; concentration 5); 69% (DRC-2; 180'; concentration 10); 78% (DRC-2; 180'; concentration 40); 8% (DRC-2; concentration 2.5; 180'); 44% (DRC-2; concentration 5; 180'); 69% (DRC-2; concentration 10; 180'). Besides, the “% inhibition apPOL 180'” value is on record as 75% (DRC-2; concentration 20; 180'); 78% (DRC-2; concentration 40; 180'); 76% (DRC-2; concentration 80; 180'); 91% (first dose-response set; 180'; concentration 40); 91% (first dose-response set; 180'; concentration 80). Moreover, the “% inhibition Apol 40'” value is 69% (DRC-2; 40'; concentration 10); 69% (DRC-2; 40'; concentration 20); 18% (DRC-2; concentration 2.5; 40'); 55% (DRC-2; concentration 5; 40'); 69% (DRC-2; concentration 10; 40'); 69% (DRC-2; concentration 20; 40'). Besides, the “% inhibition Apol 40'” value reads like this: (DRC-2; concentration 40; 40') 70%; (DRC-2; concentration 80; 40') 65%. For the same molecule, the “% inhibition ApPOL 90'” value by setting is: (DRC-2; 90'; concentration 10) 71%; (DRC-2; 90'; concentration 80) 71%; (DRC-2; concentration 2.5; 90') 16%; (DRC-2; concentration 5; 90') 54%; (DRC-2; concentration 10; 90') 71%; (DRC-2; concentration 20; 90') 73%. Further, the “% inhibition ApPOL 90'” value runs as follows: (DRC-2; concentration 40; 90') 74%; (DRC-2; concentration 80; 90') 71%. The “% inhibition Apo pol 5'” value (DRC-2; concentration 2.5; 5') is listed as 19%; the “% inhibition Apo pol 5'” value (DRC-2; concentration 5; 5') is given as 46%; the “% inhibition Apo pol 5'” value (DRC-2; concentration 10; 5') worked out at 52%; the “% inhibition Apo pol 5'” value (DRC-2; concentration 20; 5') is given as 49%; the “% inhibition Apo pol 5'” value (DRC-2; concentration 40; 5') is on record as 50%; the “% inhibition Apo pol 5'” value (DRC-2; concentration 80; 5') amounted to 43%. For the same molecule, the “DNA Pol” value came out at 45 (primary screen value of the 186 hits; unit not given; 90 min, 10 µM) and 45 (primary screen value; head prints only 'DNA Pol'; 90 min, 10 µM).
Turning to `Cc1cc(C)c2c(O)nc(SCC(=O)c3ccc(O)c(O)c3)nc2n1` [Molecule 88], the IC50 (usually the point on the concentration scale where inhibition reaches its midpoint) under setting [1] was less than 2.5 µM.
Regarding `O=C1CSC2=NC3=C(CCc4ccccc43)C(c3cccs3)N12` (stereo not drawn) [Molecule 59], under setting [1], the IC50 amounted to 14.7 µM.
`CC(C)CCNC(=O)c1cnn2c(O)cc(CSc3ccc(Cl)cc3)nc12` [Molecule 101]: the IC50 under setting [1] worked out at 9.74 µM.
The same measure, in the same setting: the result for `O=C(c1c[nH]c2ncccc12)N1CCCC1` [Molecule 63] reads 21.4 µM.
Take `CSC(C)C(=O)C=CN(C)C` (stereo not drawn) [Molecule 71, CSC(C(=O)C=CN(C)C)C]: the “DNA Pol” value reads like this: ('DNA Pol'; screening value, unit not given; 90 min, 10 µM) 74; (primary screen hit value, DNA Pol (186 hits); 90 min, 10 µM) 74. For the same molecule, the “% inhibition Apo pol 10'” value runs as follows: (DRC-1; 10'; concentration 2.5) 3.1346%; (DRC-1; 10'; concentration 5) 9.272%; (DRC-1; 10'; concentration 10) 23.0547%; (DRC-1; 10'; concentration 20) 40.6618%; (DRC-1; 10'; concentration 40) 61.0031%; (DRC-1; 10'; concentration 80) 73.8561%. In addition, the “% inhibition Apol 90'” value (DRC-1; 90'; concentration 2.5) is -5.565%; the “% inhibition Apol 90'” value (DRC-1; 90'; concentration 5) was -2.761%; the “% inhibition Apol 90'” value (DRC-1; 90'; concentration 10) was determined as 6.496%; the “% inhibition Apol 90'” value (DRC-1; 90'; concentration 20) came out at 18.7859%; the “% inhibition Apol 90'” value (DRC-1; 90'; concentration 40) was 40.8686%; the “% inhibition Apol 90'” value (DRC-1; 90'; concentration 80) worked out at 61.3008%. The “% inhibition apPOL 180'” value was -9.552% (DRC-1; 180'; concentration 2.5); -9.951% (DRC-1; 180'; concentration 5); -3.723% (DRC-1; 180'; concentration 10); 5.025% (DRC-1; 180'; concentration 20); 23.5627% (DRC-1; 180'; concentration 40); 48.8803% (DRC-1; 180'; concentration 80). The “% inhibition apPOL 180'” value came out at 4% (DRC-2, 180', concentration 2.5); 0.715% (DRC-2, 180', concentration 5); 5.41% (DRC-2, 180', concentration 10); 31% (DRC-2, 180', concentration 20); 37% (DRC-2, 180', concentration 40); 65% (DRC-2, 180', concentration 80). In addition, the “% inhibition Apo pol 5'” value by setting is: (DRC-2, 5', concentration 2.5) 11%; (DRC-2, 5', concentration 5) 14%; (DRC-2, 5', concentration 10) 26%; (DRC-2, 5', concentration 20) 41%; (DRC-2, 5', concentration 40) 46%; (DRC-2, 5', concentration 80) 48%. Also, the “% inhibition Apo pol 5'” value (conc 2.5 (unit not given); 5'; DRC-2) is given as 11%. Also, the “% inhibition Apol 40'” value (DRC-2, 40', concentration 2.5) is reported as 11%; the “% inhibition Apol 40'” value (DRC-2, 40', concentration 5) was 11%; the “% inhibition Apol 40'” value (DRC-2, 40', concentration 10) is reported as 21%; the “% inhibition Apol 40'” value (DRC-2, 40', concentration 20) turned out to be 42%; the “% inhibition Apol 40'” value (DRC-2, 40', concentration 40) stood at 50%; the “% inhibition Apol 40'” value (DRC-2, 40', concentration 80) is 62%. Moreover, the “% inhibition Apol 40'” value runs as follows: (conc 2.5 (unit not given); 40'; DRC-2) 11%; (conc 5 (unit not given); 40'; DRC-2) 11%. In addition, the “% inhibition ApPOL 90'” value is 9% (DRC-2, 90', concentration 2.5); 6% (DRC-2, 90', concentration 5); 15% (DRC-2, 90', concentration 10); 39% (DRC-2, 90', concentration 20); 47% (DRC-2, 90', concentration 40); 64% (DRC-2, 90', concentration 80).
